# Assays:
# [1] = tested on: Wood46 strain of S. aureus; experiment: Macrophage intracellular killing assay with opsonized, washed bacteria; assay type: cell-based, Staphylococcus aureus; conditions: 10 μg/mL or 0.5 μg/mL
# Description: The Wood46 strain of S. aureus was incubated with 10 μg/mL or 0.5 μg/mL of S4497 antibody, Isotype control-AAC containing a cathepsin B cleavable linker, thio-trastuzumab HC A118C-MC-vc-PAB-(dimethyl-pipBOR) AAC-101, thio-S4497 HC WT (v8), LC V205C-MC-vc-PAB-(dimethylpipBOR) AAC-192, Isotype control-AAC containing a staphopain cleavable linker, thio-trastuzumab HC […]-MP-LAFG-PABC-(piperazinoBOR) (“core peptide” disclosed as SEQ ID NO: 128) or thio-S4497 HC v1-MP-LAFG-PABC-(piperazinoBOR) (“core peptide” disclosed as SEQ ID NO: 128) AAC-193 for 1 hour to permit binding of the AAC to bacteria (FIG. 32). To limit non-specific binding of the AAC, the opsonized bacteria were centrifuged, washed once and resuspended in buffer before being fed to murine macrophages. […] Antibody-antibiotic conjugate, thio-54497 LC v8-MP-LAFG-PABC-(piperazinoBOR) (“core peptide” disclosed as SEQ ID NO: 128)AAC-215 is efficacious in vivo in a MRSA infection model: […]
# USA300 = experiment: Pre-treatment in intravenous infection model in Balb/c mice; assay type: in vivo, mouse; conditions: antibodies 50 mg/Kg IV 30 minutes prior to infection; vancomycin 110 mg/Kg twice daily IP; day 4
# Description: Balb/c mice were given a single dose of vehicle control (PBS) or 50 mg/Kg of antibodies by intravenous injection 30 minutes prior to infection with 2×10^7 CFU of USA300. […] Control mice were given twice daily treatments with 110 mg/Kg of vancomycin by intraperitoneal injection (Vanco). All mice were sacrificed on day 4 post-infection, and the total number of surviving bacteria in kidneys (2 kidneys pooled) was determined by plating.
# (§1) 7 week old female mice were used for all in vivo experiments and infections were carried out by intravenous injection into the tail vein. A/J mice (Jackson Lab) were infected with a dose of 2×10^6 CFU. […] For studies examining the role of competing human IgG (SCID IVIG model), CB17.SCID mice (Charles River Laboratories, Hollister, Calif.) were reconstituted with GammaGard S/D IGIV Immune Globulin (ASD Healthcare, Brooks Ky.) using a dosing regimen optimized to achieve constant serum levels of >10 mg/mL of human IgG. IGIV was administered with an initial intravenous dose of 30 mg per mouse followed by a second dose of 15 mg/mouse by intraperitoneal injection after 6 hours, and subsequent daily dosings of 15 mg per mouse by intraperitoneal injection for 3 consecutive days. Mice were infected 4 hours after the first dose of IGIV with 2×10^7 CFU of MRSA diluted in phosphate buffered saline by intravenous injection. […]
# [2] = clinically achievable serum levels; cited from earlier work
# [3] = tested on: MRSA (NRS384 strain of USA300); experiment: MIC determinations for extracellular bacteria; conditions: Staphylococcus aureus, read-out: Extracellular MRSA MIC
# Description: Dilutions of the antibiotic were made in quadruplicate in 96 well culture dishes. MRSA (NRS384 strain of USA300) was taken from an exponentially growing culture and diluted to 1×10^4 CFU/mL. Bacteria was cultured in the presence of antibiotic for 18-24 hours with shaking at 37° C. and bacterial growth was determined by reading the Optical Density (OD) at 630 nM. The MIC was determined to be the dose of antibiotic that inhibited bacterial growth by >90%.
# MRSA (USA300) = experiment: Intravenous infection model in CB17.SCID mice reconstituted with human IgG; assay type: in vivo, mouse
# Description: To confirm that the AAC would be effective in the presence of competing human antibodies in vivo, the in vivo infection model was modified to generate mice that express normal levels of human IgG in the serum. […] Four days after infection the bacterial load in the kidneys (FIG. 10C) was assessed.
# Efficacy of the AAC was compared with that of treatment with vancomycin, the current standard of care treatment for MRSA infections. […] CB17.SCID mice were reconstituted with human IgG using a dosing regimen optimized to yield constant levels of at least 10 mg/mL of human IgG in serum.
# as §1, with “days.” for “days. Mice were infected 4 hours after the first dose of IGIV with 2×10^7 CFU of MRSA diluted in phosphate buffered saline by intravenous injection.”
# MRSA [4] = conditions: TSB media; vancomycin 2 and 20 μg/mL, rifampin 0.02 and 0.2 μg/mL
# [5] = tested on: MRSA (NRS384 strain of USA300); experiment: MIC determinations for intracellular bacteria inside mouse peritoneal macrophages; assay type: cell-based, Staphylococcus aureus; conditions: Staphylococcus aureus; MRSA inside mouse peritoneal macrophages; antibiotics added 1 day after infection, survival assessed 24 hours later; read-out: Intracellular MRSA MIC
# MRSA [6] = experiment: Transfer of infection from peritoneal cells to MG63 osteoblasts in the presence of vancomycin; assay type: cell-based, Staphylococcus aureus; conditions: 5 μg/mL of vancomycin
# Description: 6-8 week old female A/J mice (JAX™ Mice, Jackson Laboratories) were infected with 1×10^8 CFU of the NRS384 strain of USA300 by peritoneal injection. […] Peritoneal cells were then washed 2× in ice cold HB buffer. […] Free MRSA from the primary infection was stored overnight at 4° C. in Phosphate Buffered Saline Solution as a control for extracellular bacteria that were not subject to neutrophil killing.
# Osteoblasts were plated in 24 well tissue culture plates and cultured to obtain a confluent layer. On the day of the experiment, the osteoblasts were washed once in RPMI (without supplements). MRSA or infected peritoneal cells were diluted in complete RPMI-10 and vancomycin was added at 5 μg/mL immediately prior to infection. Peritoneal cells were added to the osteoblasts at 1×10^6 peritoneal cells/mL. A sample of the cells was lysed with 0.1% triton-x to determine the actual concentration of live intracellular bacteria at the time of infection.
# To generate a pool of intracellular S. aureus, A/J mice were infected with MRSA and infected peritoneal cells were taken 1 day post infection. […] The total number of surviving intracellular bacteria in each well was determined by plating cell lysates on agar plates. […]
Compound,killing of intracellular bacteria [1],effect of pre-treatment on bacterial loads in kidneys (USA300),Serum Cmax [2],MIC [3],"efficacy in kidneys (FIG. 11A) (MRSA (USA300); AAC single dose 50 mg/Kg day 1, vancomycin 100 mg/Kg twice daily, day 4)","reduction of bacterial loads (MRSA (USA300); twice-daily 100 mg/Kg, treatment initiated more than 1 day post infection)",bacteria remained viable during the first two hours of antibiotic treatment (MRSA [4]),loss in viable bacteria by 5 hours (MRSA [4]),MIC [5],intracellular bacteria in MG63 wells 1 day post infection (MRSA [6]; similar dose of free (extracellular) MRSA),intracellular bacteria in MG63 wells 1 day after infection (MRSA [6]; wells infected with 3×10^4 intracellular bacteria (peritoneal cells))
thio-trastuzumab HC A1118C-MP-LAFG-PABC-(piperazinoBOR),no activity,–,–,–,–,–,–,–,–,–,–
CN[C@H](CC(C)C)C(=O)N[C@H]1C(=O)N[C@@H](CC(N)=O)C(=O)N[C@H]2C(=O)N[C@H]3C(=O)N[C@H](C(=O)N[C@H](C(=O)O)c4cc(O)cc(O)c4-c4cc3ccc4O)[C@H](O)c3ccc(c(Cl)c3)Oc3cc2cc(c3O[C@@H]2O[C@H](CO)[C@@H](O)[C@H](O)[C@H]2O[C@H]2C[C@](C)(N)[C@H](O)[C@H](C)O2)Oc2ccc(cc2Cl)[C@H]1O [Vancomycin],–,cleared the infection in all of the mice tested,10000 to 40000 ng/mL,1 µg/mL,failed to clear the infection,about 50 fold,90%,100 fold,> 100 µg/mL,375 intracellular bacteria,"8,750 intracellular bacteria"

# From patent US9803002B2, “Anti-wall teichoic antibodies and conjugates” (Genentech, Inc., priority 2013, dated 2017)
